“Also recorded” adds a separate entry of the source.
Columns and labels:
[1] = tested on: left thoracic vagal nerve; test: Ambulatory recording of vagal nerve activity (VNA); details: carvedilol 12 mg twice daily for a week or ICI infusion 7 days; immediately before drug 192.96
Description: (§1) Eight mongrel dogs (4 male, weighing 20-30 kg) were used in this Example. Left thoracotomy was performed through the first intercostal space for the implantation of a D70-CCTP radiotransmitter manufactured by the Data Sciences International (DSI, St Paul, Minn.). The first pair of bipolar electrodes was inserted beneath the nerve sheath of the left stellate ganglion. A second pair of bipolar leads was attached to the left thoracic vagal nerve at a level of 4 to 5 cm above the aortic arch. The third lead, a catheter with a pressure sensor, was inserted directly into the subclavian artery for blood pressure (BP) recording. The transmitter and ground wires were inserted into a subcutaneous pocket.
(§2) After 2 weeks of recovery, the radiotransmitter was turned on to record nerve signals and BP at baseline. The pre-implantation BP was calibrated against the ambient pressure in the vivarium. […]
(§3) The nerve activities were integrated minute-by-minute. […] The mean BP was also analyzed minute-by-minute during the same period. […] Pearson correlation coefficients between these two nerve activities were calculated. […]
(§4) To determine the relationship between BP, heart rate (HR) and ANS activities, 1-minute and 4-hour averages for each dog were calculated on each day of data collection starting at midnight. Pearson correlation coefficients between SGNA and VNA were also calculated within each 4-hour interval. […]

left stellate ganglion = test: Ambulatory recording of stellate ganglion nerve activity (SGNA); details: carvedilol 12 mg twice daily for a week or ICI infusion 7 days; immediately before drug 209.40
Description: as §1, §2, §3, §4

mongrel dogs = test: Ambulatory monitoring of blood pressure in dogs (radiotransmitter, Protocol 1); details: for BP response following simultaneous termination of sympathovagal firing and postural change: FIGS. 5A-5I, example dog, baseline drop from 110 mmHg to 80 mmHg; for BP: all eight dogs, random effects model, oral carvedilol 12 mg twice daily for a week, or 7 days of ICI infusion (3.1 μg/kg/hr), baseline 125.60; for percentage of hypotensive episodes (mean systolic pressure <100 mmHg in one min): minute-by-minute data, all dogs, baseline 7.1%
Description: as §1
After 2 weeks of recovery, the radiotransmitter was turned on to record nerve signals and BP at baseline. The pre-implantation BP was calibrated against the ambient pressure in the vivarium. There was a 12-hour daylight cycle in the vivarium staring at 7 AM each day. After the baseline (stellate ganglion nerve activity (SGNA), vagal nerve activity (VNA), and BP) recordings, the dogs were given oral carvedilol, 12 mg twice daily for a week. The drugs were then washed out for a week and baseline recordings were re-collected. […] The pump is designed to empty its contents over 7 days at a rate of 10 μl/hr. Therefore, the infusion rate was 3.1 μg/kg/hr for a 30 kg dog. […] The data collected at days 6-7 of the infusion were used for analyses.
The nerve activities were integrated minute-by-minute. Because BP recordings are prone to motion artifacts, the data of all dogs included in Protocol 1 was manually reviewed and the first 10 noise-free minutes of each hour were selected for analyses. The mean BP was also analyzed minute-by-minute during the same period. The SGNA was plotted against the VNA on an XY graph to visualize the patterns of activation. Pearson correlation coefficients between these two nerve activities were calculated. The data obtained from the manual analyses were subjected to further statistical analyses as described below.
To determine the relationship between BP, heart rate (HR) and ANS activities, 1-minute and 4-hour averages for each dog were calculated on each day of data collection starting at midnight. Pearson correlation coefficients between SGNA and VNA were also calculated within each 4-hour interval. To analyze data from any given individual dog, multiple linear regression with systolic BP as the dependent variable and ANS activities as the independent variables based on 1-minute average data were used. To analyze data from all dogs and the 4-hour average data, a random effects model with dog as the random effect was used with the same dependent and independent variables, plus HR and the Pearson correlation coefficient as additional independent variables. […] A cubic smoothing spline was also used to fit BP versus hour for one dog. Statistical analysis was performed with IBM SPSS Statistics 19 (Armonk, N.Y.) and SAS version 9.3 (SAS Institute Inc., Cary, N.C.).

[2] = tested on: rat model of orthostatic hypotension; details: no definite beneficial effect shown; cited from earlier work
humans = details: doses up to 80 mg orally, no continuous BP monitoring; cited from earlier work

COc1ccccc1OCCNCC(O)COc1cccc2[nH]c3ccccc3c12 (stereo not drawn) [carvedilol]
iVNA (integrated vagal nerve activity) [1]: 186.68 mV-s
iSGNA (integrated stellate ganglion nerve activity) (left stellate ganglion): 258.47 (95% CI: 207.20 to 309.75) mV-s
BP response following simultaneous termination of sympathovagal firing and postural change (mongrel dogs): drop in BP from 100 mmHg to 80 mmHg; also recorded: followed by hypotension
BP (mongrel dogs): 124.8 (95% CI: 116.63 to 132.97) mmHg
percentage of hypotensive episodes (mean systolic pressure <100 mmHg in one min) (mongrel dogs): 7.8%

Cc1ccc(OCC(O)C(C)NC(C)C)c2c1CCC2 (stereo not drawn) [ICI-118,551, 3-(isopropylamino)-1-[(7-methyl-4-indanyl)oxy]butan-2-ol]
effect on orthostatic symptoms [2]: had a tendency of improving orthostatic symptoms
effect on BP or heart rate (humans): does not alter BP or heart rate
iVNA (integrated vagal nerve activity) [1]: 220.18 (95% CI: 156.46 to 283.90) mV-s
iSGNA (integrated stellate ganglion nerve activity) (left stellate ganglion): 281.23 (95% CI: 230.30 to 332.16) mV-s
BP response following simultaneous termination of sympathovagal firing and postural change (mongrel dogs; listed as ICI): no change in BP; also recorded: not followed by hypotension
BP (mongrel dogs): 133.00 (95% CI: 124.85 to 141.14) mmHg
percentage of hypotensive episodes (mean systolic pressure <100 mmHg in one min) (mongrel dogs): 1.3%

— patent publication US9974759B2, “Beta 2 adrenoceptor antagonists for treating orthostatic hypotension” (Indiana University Research & Technology Corporation, priority 2013, dated 2018)
